Reference: article PMC4857130, “Mechanistic and quantitative insight into cell surface targeted molecular imaging agent design” (Scientific Reports, 2016)
pKd: −log10 of the molar value. Read-outs that look alike come from different tables or passages of the source. Marks after values point to notes of the source that are not given here.

Legend:
[1] = test system: plasma protein; conditions: cited from earlier work
[2] = test system: LNCaP or PC3 xenografts; set-up: method as in PMID 19706750, PMID 23733925; conditions: cited from earlier work; for TBR (tumor to muscle ratio) / blood concentration: 4 h post-injection; for TBR (tumor to muscle ratio): calculated from published tumor and skeletal muscle uptake
[3] = biological target: PSMA; set-up: method as in PMID 19706750, PMID 23733925; conditions: strongest affinity of all PSMA binders tested; cited from earlier work
[4] = test system: plasma protein; test: Plasma protein binding by Rapid Equilibrium Dialysis (RED); format: in vitro ADME; conditions: 12 kDa plate
Source text: Plasma protein interactions were quantified for commonly used, commercially available far-red and near-infrared fluorescent dyes. For IRDye 800CW, ZW800, BODIPY 650, Alexa Fluor 680, and integrin conjugates, a Rapid Equilibrium Dialysis (RED) plate (Thermo Scientific) was used following the manufacturer’s protocol.
Rapid Equilibrium Dialysis (RED) was used to quantify plasma protein binding
for various fluorescent dyes (carboxylate form) and fluorescent conjugates.
are available with membrane molecular weight cutoffs of either 8 kDa or 12 kDa.
that many of the fluorescent conjugates are >1 kDa, the 12 kDa plate were used to reduce
The 12 kDa RED plate gave

## O=C([O-])CN(CCN(CC(=O)[O-])CC(=O)[O-])CCN(CC(=O)[O-])CC(=O)[O-].[99Tc+4] [99mTc-DTPA]
[1]
  plasma protein binding: < 5%

## CC1(C)C(/C=C/C=C/C=C/C=C2\N(CCCCS(=O)(=O)[O-])c3ccc4ccccc4c3C2(C)C)=[N+](CCCCS(=O)(=O)[O-])c2ccc3ccccc3c21.[Na+] [ICG dye]
[1]; estimates based on a subsaturating concentration of ICG
  % Plasma Protein Bound: 99.5–99.975 ^* %

## O=C(O)CC[C@H](NC(=O)N[C@@H](CCCCNCc1ccc(I)cc1)C(=O)O)C(=O)O [MIP1072]
[2]
  TBR (tumor to muscle ratio): 171
  blood concentration: 0.06 %ID/g

## O=C(O)CC[C@H](NC(=O)N[C@@H](CCCCNC(=O)Nc1ccc(I)cc1)C(=O)O)C(=O)O [MIP1095]
[3]
  pKd: 9.62
[2]; highest of the PSMA set
  skeletal muscle uptake: 0.26 %ID/g

## O=C(O)CC[C@H](NC(=O)N[C@@H](CCC(=O)N[C@@H](CCCCN(Cc1nccn1CC(=O)N(CC(=O)O)CC(=O)O)Cc1nccn1CC(=O)N(CC(=O)O)CC(=O)O)C(=O)O)C(=O)O)C(=O)O [MIP1404]
[2]
  TBR (tumor to muscle ratio): 157
  blood concentration: 0.02 %ID/g

## O=C(O)CC[C@H](NC(=O)N[C@@H](CCC(=O)NC(CCCCN(Cc1nccn1CC(=O)O)Cc1nccn1CC(=O)O)C(=O)O)C(=O)O)C(=O)O (stereo partly shown) [MIP1427]
[2]
  TBR (tumor to muscle ratio): 31
  blood concentration: 0.28 %ID/g

## CC1(C)C(=CC=CC=CC=CC2=[N+](CCCCS(=O)(=O)[O-])c3ccc(C(=O)NC[C@H](O)[C@@H](O)[C@H](O)C(O)CO)cc3C2(C)C)N(CCCCS(=O)(=O)[O-])c2ccc(C(=O)NCC(O)C(O)C(O)[C@H](O)CO)cc21.[Na+] (stereo partly shown) [SIDAG dye]
[1]; reported bound fraction in the plasma, discussed in SI
  % Plasma Protein Bound: 57 ^* %

## IRDye 800CW carboxylate
[4]
  % Plasma Protein Bound: 89 ± 3%

## Inulin
[1]; classic example, no reference given
  plasma protein binding: no measurable plasma protein binding
